Source: patent publication US10278973B2, “Hydroxyl purine compounds and use thereof” (GUANGDONG RAYNOVENT BIOTECH CO., LTD., priority 2015, dated 2019)
Like-named read-outs stand apart in the source and are kept apart here.

Columns and labels:
[1] = system: LPS-induced expression of TNF-α in rat blood; assay: In vitro effect of the compound on LPS-induced expression of TNF-α in rat blood (ELISA); format: cell-based, Sprague Dawley rats; parameters: key to TNF-α inhibitory ratio: 80% ≥ + > 60%; ++ > 80%; — N/A; conditions: final compound concentration 100 μM, 5 hours, plasma TNF-α by ELISA; for inhibition at 100 µM: read-out: TNF-α inhibitory ratio
Source text: Experimental Example 2: In Vitro Evaluation of the Effect of the Compound on LPS-Induced Expression of TNF-α in Rat Blood
Experimental Objectives: To detect in vitro the effect of the test compound on LPS-induced expression of TNF-α in rat blood and evaluate the inhibitory effect of the compound on LPS-induced expression of TNF-α in rat blood.
Sprague Dawley rats (male, 210-260 g, 8-10 weeks old, Shanghai Slack)
Rat TNF-alpha Quantikine ELISA Kit (R & D, #SRTA00)
A solution of the test compound with a concentration of 1 mM was prepared and 40 μL (final compound concentration was 100 μM) was added to a 48-well cell culture plate. Rats were anesthetized with isoflurane and blood was collected from the heart (heparin anticoagulation). The blood was added to the 48-well cell plate to which the test compound has been added, with 320 μL per well. The 48-well plate was placed in a cell incubator, incubated for 30 minutes and then removed, added with 40 μL LPS solution (100 μg/mL), mixed and placed in the incubator to continue the incubation. 5 hours later, the 48-well plate was removed and the blood sample was transferred to a 1.5 mL centrifuge tube and centrifuged in a centrifuge (4,500 rpm, 4° C., 5 minutes). The plasma was separated from the supernatant, frozen quickly after packing and stored in −80° C. refrigerator. The next day the R&D ELISA kit was used to measure TNF-α levels in plasma samples according to the instructions of the kit.

[2] = molecular target: T1, Full length human PDE2A protease (Homo sapiens, UniProt O00408); assay: In vitro evaluation of PDE2 phosphodiesterase inhibitory activity (Transcreener AMP2/GMP2 fluorescence polarization); format: biochemical
T1 construct: Full length human PDE2A protease; GST (N); host or cells: insect Sf9 cells (baculovirus)
Procedure: In Vitro Evaluation of PDE2 Phosphodiesterase Inhibitory Activity Experimental objectives: To detect the concentration of AMP/GMP produced in the reaction system by measuring the fluorescence intensity of the fluorescent dye AlexaFluor 633 substituted on AMP/GMP antibody and to calculate the PDE2 phosphodiesterase inhibitory IC50 value of the test compound. Test buffer solution: 10 mM Tris-HCl, pH 7.5, 5 mM MgCl2, 0.01% Brij 35, 1 mM DTT, and 1% DMSO. Enzyme: Full length human PDE2A protease expressed and recombined in insect Sf9 cells with baculovirus using N-terminal GST tag […] Transcreener® AMP^2/GMP^2 antibody, AMP2/GMP2 AlexaFluor 633 fluorescent dye The enzyme solution was prepared with freshly prepared buffer solution and then added to the reaction wells. The DMSO solution of the test compound was added by Echo550 non-contact nanoscale sonicate pipetting system and preincubated for 10 minutes at room temperature. The reaction was initiated by addition of substrate (1 μM cGMP) and allowed to react for one hour at room temperature. The detection system (Transcreener® AMP^2/GMP^2 antibody, AMP2/GMP2 AlexaFluor 633 fluorescent dye) was then added and reacted for 90 minutes at room temperature before fluorescence polarization was detected using Ex/Em 620/688. The intensity of fluorescence polarization was converted to nM concentration by the AMP/GMP standard curve and then relative inhibition of enzyme activity relative to DMSO blank was calculated. IC50 values and curves were calculated using the Prism software package (GraphPad Software, San Diego Calif., USA)

[3] = recombinant full length human PDE2A, substrate 1 μM cGMP, 1 hour at room temperature, read-out: PDE2 phosphodiesterase inhibitory activity

T1 sequence (O00408 whole entry): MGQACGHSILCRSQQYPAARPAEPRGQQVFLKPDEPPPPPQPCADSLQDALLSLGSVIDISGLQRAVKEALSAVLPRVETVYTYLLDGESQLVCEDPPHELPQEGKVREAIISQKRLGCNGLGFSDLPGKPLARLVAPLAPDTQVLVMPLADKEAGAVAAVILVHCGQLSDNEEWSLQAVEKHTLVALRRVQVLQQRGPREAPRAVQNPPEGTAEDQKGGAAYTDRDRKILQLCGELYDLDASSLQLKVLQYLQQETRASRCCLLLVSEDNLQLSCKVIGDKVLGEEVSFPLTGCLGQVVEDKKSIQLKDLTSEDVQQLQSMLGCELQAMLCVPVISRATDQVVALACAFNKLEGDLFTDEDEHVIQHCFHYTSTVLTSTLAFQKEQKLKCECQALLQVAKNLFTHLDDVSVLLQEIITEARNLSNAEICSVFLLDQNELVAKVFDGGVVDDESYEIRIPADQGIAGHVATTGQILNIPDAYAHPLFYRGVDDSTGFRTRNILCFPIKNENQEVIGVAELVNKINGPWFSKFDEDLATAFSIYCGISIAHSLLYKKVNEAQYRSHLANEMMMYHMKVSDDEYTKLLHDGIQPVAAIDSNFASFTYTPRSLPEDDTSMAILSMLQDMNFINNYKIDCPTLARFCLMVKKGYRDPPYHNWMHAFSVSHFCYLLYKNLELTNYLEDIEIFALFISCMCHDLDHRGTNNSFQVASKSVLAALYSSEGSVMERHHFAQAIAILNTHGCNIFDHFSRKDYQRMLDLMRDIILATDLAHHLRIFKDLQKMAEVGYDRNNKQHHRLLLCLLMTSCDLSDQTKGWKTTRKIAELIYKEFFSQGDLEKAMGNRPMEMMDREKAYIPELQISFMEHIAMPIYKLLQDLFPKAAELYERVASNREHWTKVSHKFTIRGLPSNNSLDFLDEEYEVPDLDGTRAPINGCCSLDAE

IC50 [2, 3] | SMILES | TNF-α inhibitory ratio [1] | inhibition at 100 µM [1] | IC50 [2]
 | Cn1cnc2c1c(=O)n(CCCN1CCCC1=O)c(=O)n2C [Example 3, 3,7-Dimethyl-1-(3-(2-oxopyrrolidin-1-yl)propyl)-1H-purine-2,6(3H,7H)-dione] | — |  | 
1 to 10 µM | CC(C)c1cc(Cn2c(=O)c3c(ncn3C)n(C)c2=O)on1 [Example 15, 1-((3-Isopropylisoxazol-5-yl)methyl)-3,7-dimethyl-1H-purine-2,6(3H,7H)-dione] |  | 60 to 80% | 
 | Cc1cc(CCCCn2c(=O)c3c(ncn3C)n(C)c2=O)on1 [Example 19, 3,7-Dimethyl-1-(4-(3-methylisoxazol-5-yl)butyl)-1H-purine-2,6(3H,7H)-dione] | — |  | 10 to 50 µM
10 to 50 µM | Cc1noc(C)c1Cn1c(=O)c2c(ncn2C)n(C)c1=O [Example 25, 1-((3,5-Dimethylisoxazol-4-yl)methyl)-3,7-dimethyl-1H-purine-2,6(3H,7H)-dione] | — |  | 
1 to 10 µM | Cc1nc(C)c(CCn2c(=O)c3c(ncn3C)n(C)c2=O)s1 [Example 31, 1-(2-(2,4-Dimethylthiazol-5-yl)ethyl)-3,7-dimethyl-1H-purine-2,6(3H,7H)-dione] | — |  | 
1 to 10 µM | CC(C)c1cc(Cn2c(=O)c3c(ncn3CC3CC3)n(C)c2=O)on1 [Example 59, 7-(Cyclopropylmethyl)-1-((3-isopropylisoxazol-5-yl)methyl)-3-methyl-1H-purine-2,6(3H,7H)-dione] |  | > 80% | 
10 to 50 µM | Cc1cc(CCCCn2c(=O)c3cccnc3n(C)c2=O)on1 [Example 89, 1-Methyl-3-[4-(3-methylisoxazol-5-yl)butyl]pyrido[2,3-d]pyrimidine-2,4-dione] |  | > 80% | 

SMILES | IC50 [2, 3] | TNF-α inhibitory ratio [1] | inhibition at 100 µM [1] | IC50 [2]
Cc1cc(C2CCC(n3c(=O)c4c(ncn4C)n(C)c3=O)CC2)on1 (centres unmarked) [Example 27, 3,7-Dimethyl-1-(4-(3-methylisoxazol-5-yl)cyclohexyl)-1H-purine-2,6(3H,7H)-dione] | 10 to 50 µM | — |  | 
Cc1cc(CCCCn2cnn3cnc(CC(C)C)c3c2=O)on1 [Example 82, 5-isobutyl-3-(4-(3-methylisoxazol-5-yl)butyl)imidazo[5,1-F] [1,2,4]triazin-4-one] | 1 to 10 µM |  | 60 to 80% | 
